The source of these data is paper PMC12446458, “Structural basis for DNA break sensing by human MRE11-RAD50-NBS1 and its regulation by telomeric factor TRF2” (Nature Communications, 2025).

Series [1] concerns the target T1, MRN complex (human MRE11-RAD50-NBS1) (Homo sapiens, UniProt Q92878).
T1 construct: Expi293F (MRE11 H129N) or Hi5 insect cells (wild type); with Double-strand break repair protein MRE11; Nibrin
T1 sequence (Q92878 1-1312): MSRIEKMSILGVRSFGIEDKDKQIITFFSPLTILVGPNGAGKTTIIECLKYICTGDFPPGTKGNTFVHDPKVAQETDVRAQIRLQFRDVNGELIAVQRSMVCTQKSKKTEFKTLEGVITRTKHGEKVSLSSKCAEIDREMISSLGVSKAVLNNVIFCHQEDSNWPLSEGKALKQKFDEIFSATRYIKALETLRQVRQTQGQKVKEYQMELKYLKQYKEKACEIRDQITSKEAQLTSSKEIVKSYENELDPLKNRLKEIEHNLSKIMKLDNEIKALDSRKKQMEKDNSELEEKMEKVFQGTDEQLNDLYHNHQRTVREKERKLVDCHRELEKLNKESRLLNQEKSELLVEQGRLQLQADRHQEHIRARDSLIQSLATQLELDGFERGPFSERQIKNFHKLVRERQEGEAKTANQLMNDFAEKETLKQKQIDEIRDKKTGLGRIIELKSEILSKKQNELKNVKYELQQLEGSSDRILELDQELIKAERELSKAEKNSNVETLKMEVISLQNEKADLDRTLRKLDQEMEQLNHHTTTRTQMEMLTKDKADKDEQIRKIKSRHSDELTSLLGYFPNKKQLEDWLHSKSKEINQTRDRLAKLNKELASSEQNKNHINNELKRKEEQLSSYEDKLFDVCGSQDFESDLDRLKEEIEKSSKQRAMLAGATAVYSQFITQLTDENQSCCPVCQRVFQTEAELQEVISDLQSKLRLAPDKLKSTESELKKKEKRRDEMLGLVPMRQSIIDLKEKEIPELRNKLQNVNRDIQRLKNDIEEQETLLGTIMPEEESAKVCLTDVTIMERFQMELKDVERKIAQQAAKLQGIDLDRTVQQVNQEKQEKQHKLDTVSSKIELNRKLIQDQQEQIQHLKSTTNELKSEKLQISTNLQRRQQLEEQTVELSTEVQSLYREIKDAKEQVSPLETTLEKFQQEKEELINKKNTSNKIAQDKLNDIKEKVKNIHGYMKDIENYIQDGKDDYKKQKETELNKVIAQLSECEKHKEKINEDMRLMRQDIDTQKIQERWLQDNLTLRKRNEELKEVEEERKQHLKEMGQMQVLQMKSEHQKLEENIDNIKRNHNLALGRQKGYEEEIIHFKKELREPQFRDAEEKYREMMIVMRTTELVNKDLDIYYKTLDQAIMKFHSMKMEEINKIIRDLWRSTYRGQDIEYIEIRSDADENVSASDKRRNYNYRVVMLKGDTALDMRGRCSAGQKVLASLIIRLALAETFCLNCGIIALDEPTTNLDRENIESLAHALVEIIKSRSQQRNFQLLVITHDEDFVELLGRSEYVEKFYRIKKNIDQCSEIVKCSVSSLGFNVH
T1 sequence (P49959 2-708 partner): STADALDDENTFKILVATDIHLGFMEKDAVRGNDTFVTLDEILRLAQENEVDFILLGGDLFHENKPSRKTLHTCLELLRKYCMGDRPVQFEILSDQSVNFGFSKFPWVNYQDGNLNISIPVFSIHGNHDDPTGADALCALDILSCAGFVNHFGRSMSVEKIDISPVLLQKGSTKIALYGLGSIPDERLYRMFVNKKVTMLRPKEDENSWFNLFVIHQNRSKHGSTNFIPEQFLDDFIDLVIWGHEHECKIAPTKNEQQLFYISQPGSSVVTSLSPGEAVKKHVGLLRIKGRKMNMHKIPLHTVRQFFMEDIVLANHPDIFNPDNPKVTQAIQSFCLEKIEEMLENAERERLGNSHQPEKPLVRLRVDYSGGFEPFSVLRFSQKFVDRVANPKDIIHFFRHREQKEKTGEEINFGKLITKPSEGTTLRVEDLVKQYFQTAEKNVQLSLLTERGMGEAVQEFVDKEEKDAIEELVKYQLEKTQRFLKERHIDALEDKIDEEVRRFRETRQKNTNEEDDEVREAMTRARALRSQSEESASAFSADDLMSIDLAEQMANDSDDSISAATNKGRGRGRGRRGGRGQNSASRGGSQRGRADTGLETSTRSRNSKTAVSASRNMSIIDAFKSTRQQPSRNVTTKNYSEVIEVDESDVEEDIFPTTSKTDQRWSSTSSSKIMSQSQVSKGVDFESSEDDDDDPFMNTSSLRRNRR
T1 sequence (O60934 1-754 partner): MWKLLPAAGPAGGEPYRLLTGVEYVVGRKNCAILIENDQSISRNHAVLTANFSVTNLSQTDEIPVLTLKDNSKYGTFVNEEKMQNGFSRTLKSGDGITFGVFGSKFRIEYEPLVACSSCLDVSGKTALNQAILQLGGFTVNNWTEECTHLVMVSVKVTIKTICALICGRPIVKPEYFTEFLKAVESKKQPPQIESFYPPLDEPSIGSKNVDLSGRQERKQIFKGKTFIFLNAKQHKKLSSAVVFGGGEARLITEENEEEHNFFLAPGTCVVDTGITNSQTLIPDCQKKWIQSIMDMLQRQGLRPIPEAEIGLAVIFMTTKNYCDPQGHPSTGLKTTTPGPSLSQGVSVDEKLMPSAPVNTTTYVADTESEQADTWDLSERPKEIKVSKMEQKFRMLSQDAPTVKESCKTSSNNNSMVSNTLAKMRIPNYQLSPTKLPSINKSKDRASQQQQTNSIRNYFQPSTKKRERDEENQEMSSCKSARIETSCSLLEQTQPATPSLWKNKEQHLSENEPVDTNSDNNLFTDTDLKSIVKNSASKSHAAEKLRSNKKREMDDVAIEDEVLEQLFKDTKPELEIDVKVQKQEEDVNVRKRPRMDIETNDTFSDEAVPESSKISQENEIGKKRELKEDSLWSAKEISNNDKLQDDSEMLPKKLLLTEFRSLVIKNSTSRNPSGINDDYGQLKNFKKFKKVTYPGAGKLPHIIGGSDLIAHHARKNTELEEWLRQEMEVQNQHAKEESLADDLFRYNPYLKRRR
Kind of series: NADH-coupled ATPase assay. In kind it is biochemical. To be noted: 0.15 mM ATP, 2 mM MgCl2, 1 mM MnCl2, pH 7.5, 37 °C; with and without 64 bp Myb DNA; rate in figure only; MRE11 wild type or H129N not clearly told for this assay.

Series [2] addresses T2, MR complex (human MRE11-RAD50) (Homo sapiens, UniProt Q92878).
T2 construct: MR complex, no NBS1; with Double-strand break repair protein MRE11
T2 sequence (Q92878 1-1312): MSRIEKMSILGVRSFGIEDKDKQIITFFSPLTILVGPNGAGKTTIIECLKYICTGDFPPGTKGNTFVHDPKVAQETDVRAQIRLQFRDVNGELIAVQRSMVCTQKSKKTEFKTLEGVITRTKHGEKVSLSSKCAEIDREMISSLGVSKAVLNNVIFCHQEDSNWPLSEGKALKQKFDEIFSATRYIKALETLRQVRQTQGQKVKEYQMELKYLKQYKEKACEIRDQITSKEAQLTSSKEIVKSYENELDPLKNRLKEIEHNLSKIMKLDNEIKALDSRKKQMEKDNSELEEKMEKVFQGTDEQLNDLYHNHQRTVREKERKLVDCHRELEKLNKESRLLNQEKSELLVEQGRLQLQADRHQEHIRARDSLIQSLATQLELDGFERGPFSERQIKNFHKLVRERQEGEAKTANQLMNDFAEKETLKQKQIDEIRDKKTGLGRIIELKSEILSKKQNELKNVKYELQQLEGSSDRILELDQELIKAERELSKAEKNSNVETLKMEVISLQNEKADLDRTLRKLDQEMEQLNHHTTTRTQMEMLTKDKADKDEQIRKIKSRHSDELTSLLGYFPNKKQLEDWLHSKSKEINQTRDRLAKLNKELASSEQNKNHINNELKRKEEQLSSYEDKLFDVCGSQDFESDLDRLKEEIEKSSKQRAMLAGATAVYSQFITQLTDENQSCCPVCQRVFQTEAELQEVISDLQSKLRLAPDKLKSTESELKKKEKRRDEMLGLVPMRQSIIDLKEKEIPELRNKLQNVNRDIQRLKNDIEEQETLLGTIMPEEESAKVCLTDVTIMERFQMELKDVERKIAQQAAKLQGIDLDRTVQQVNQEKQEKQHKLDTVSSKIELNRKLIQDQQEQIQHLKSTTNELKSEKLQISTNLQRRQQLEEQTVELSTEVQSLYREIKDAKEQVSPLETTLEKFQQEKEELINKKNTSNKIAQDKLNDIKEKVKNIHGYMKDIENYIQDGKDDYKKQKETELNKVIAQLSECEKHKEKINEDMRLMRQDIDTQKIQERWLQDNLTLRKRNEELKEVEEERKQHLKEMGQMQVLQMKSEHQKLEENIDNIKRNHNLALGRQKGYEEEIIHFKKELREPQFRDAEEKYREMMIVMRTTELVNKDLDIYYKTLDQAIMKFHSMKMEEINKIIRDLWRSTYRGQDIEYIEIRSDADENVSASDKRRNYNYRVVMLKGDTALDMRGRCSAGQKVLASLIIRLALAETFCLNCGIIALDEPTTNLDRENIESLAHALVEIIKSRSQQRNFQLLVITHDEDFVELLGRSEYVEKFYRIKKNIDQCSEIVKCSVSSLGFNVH
T2 sequence (P49959 2-708 partner): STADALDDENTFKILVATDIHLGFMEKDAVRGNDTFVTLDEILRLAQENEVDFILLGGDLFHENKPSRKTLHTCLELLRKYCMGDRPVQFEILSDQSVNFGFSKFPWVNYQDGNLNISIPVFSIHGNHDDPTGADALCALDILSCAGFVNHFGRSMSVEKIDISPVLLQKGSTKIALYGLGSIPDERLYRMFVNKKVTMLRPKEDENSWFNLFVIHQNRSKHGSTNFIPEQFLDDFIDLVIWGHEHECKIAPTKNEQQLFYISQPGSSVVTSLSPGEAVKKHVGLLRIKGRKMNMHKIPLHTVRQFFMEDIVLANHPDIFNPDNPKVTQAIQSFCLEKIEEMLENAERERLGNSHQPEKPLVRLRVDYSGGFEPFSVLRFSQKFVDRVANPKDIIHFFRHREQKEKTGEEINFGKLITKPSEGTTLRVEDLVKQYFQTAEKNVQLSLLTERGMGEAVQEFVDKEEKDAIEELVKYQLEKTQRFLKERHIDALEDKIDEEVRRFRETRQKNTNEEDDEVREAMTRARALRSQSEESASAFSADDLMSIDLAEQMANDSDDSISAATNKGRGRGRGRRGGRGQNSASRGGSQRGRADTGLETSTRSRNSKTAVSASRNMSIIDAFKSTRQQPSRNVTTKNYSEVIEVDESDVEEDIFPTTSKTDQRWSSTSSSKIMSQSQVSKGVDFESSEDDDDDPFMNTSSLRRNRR
The experiment in a line: NADH-coupled ATPase assay. It is filed as biochemical. To be noted: 0.15 mM ATP, 2 mM MgCl2, 1 mM MnCl2, pH 7.5, 37 °C; with and without 64 bp Myb DNA; rate in figure only.

In series [3] the target is TRF2 full length (Homo sapiens, UniProt Q15554 1-542). Kind of series: fluorescence anisotropy; 1 mM ATP, 5 mM Mg2+; two specific binding sites fit; FA: 25 mM HEPES pH 8.0, 100 mM NaCl, 5 mM MgCl2, 0.2 mg/ml BSA, 1 mM DTT, 1 mM ATP unless stated, 30 nM 6-FAM DNA, read over 30 min; temperature not stated. To be noted: protein: recombinant; tags: MBP removed (3C); C-terminal His10; chain copies: 2; blunt. On the technique in general: Polarisation of emitted light reports the rotation of a fluorescent probe.
Sequence of TRF2 full length (Q15554 whole entry): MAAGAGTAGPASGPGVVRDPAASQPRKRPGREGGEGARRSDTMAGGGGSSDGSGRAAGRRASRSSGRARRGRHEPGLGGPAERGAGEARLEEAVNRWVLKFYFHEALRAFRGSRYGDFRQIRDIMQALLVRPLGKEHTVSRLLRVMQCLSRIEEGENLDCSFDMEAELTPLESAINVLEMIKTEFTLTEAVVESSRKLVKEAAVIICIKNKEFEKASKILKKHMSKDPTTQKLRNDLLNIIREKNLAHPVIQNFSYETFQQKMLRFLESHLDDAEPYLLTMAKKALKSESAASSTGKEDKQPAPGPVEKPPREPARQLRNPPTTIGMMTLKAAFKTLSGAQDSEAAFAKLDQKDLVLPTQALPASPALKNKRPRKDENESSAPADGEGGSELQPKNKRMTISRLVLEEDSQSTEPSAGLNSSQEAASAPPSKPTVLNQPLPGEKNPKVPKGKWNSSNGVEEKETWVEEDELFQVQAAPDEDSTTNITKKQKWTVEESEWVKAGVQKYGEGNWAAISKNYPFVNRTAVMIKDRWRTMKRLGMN

In the case of `Nc1ncnc2c1ncn2[C@@H]1O[C@H](COP(=O)(O)OP(=O)(O)OP(=O)(O)O)[C@@H](O)[C@H]1O` [ATP], the “NADH-coupled ATPase assay” value in series [1] is listed as “The purified MRN complex showed the characteristic DNA-stimulated ATPase activity”; in series [2], “ATPase activity of MR(N) complex stimulated by DNA binding”.

B1: 64 bp Myb DNA, 6-FAM (dsDNA)
DNA 1: TCTAGGGTTAGGGTTAGATTAACGCTTCTGGAGAAACTCAACGAGCTCTAACCCTAACCCTAGA
DNA 2: TCTAGGGTTAGGGTTAGAGCTCGTTGAGTTTCTCCAGAAGCGTTAATCTAACCCTAACCCTAGA
A word on the Kd: it is the free concentration of one partner at which half of the binding sites on the other are occupied at equilibrium, for simple one-to-one binding. In the case of B1, the Kd in series [3] was 121 nM.
